Consider eight compounds from patent publication US11542266B1, “Substituted piperidines as BTK inhibitors” (HAISCO PHARMACEUTICALS PTE. LTD., priority 2019, dated 2023).

In the assay the test system is Mino cells. As to the kind of experiment: Inhibition of cell proliferation, Mino cells (Cell Viability Assay, 72 h). The class given is cell-based, human. Conditions: for Mino Max inhi. %: inhibition rate at the highest concentration of the compound; for IC50: Homo sapiens. As for the experimental part: SU-DHL-4, Mino, and SU-DHL-6 cells, in the culture medium of RPMI1640+10% FBS, were cultured in an incubator at 37° C. under 5% CO2. Cells were plated in a 96-well plate. Specifically, SU-DHL-4 cells were at 20000/well, Mino and SU-DHL-6 cells were at 5000/well, with 90 μL/well. 10 μL of the compounds at different concentrations were added to each well. There were 3 replicate wells for each concentration, and the last column, added with DMSO, was used as a vehicle control group. The cultures were continued for 72 hours at 37° C. under 5% CO2. After 72 hours, 100 μL of detection reagent (Cell Viability Assay, Promega, G7573) was added to each well, and the cultures were uniformly mixed for 2 minutes, and incubated at room temperature for 10 minutes. The fluorescence signal value was measured with a microplate reader (PHERAstar FSX). The IC50 value of the compound on cell proliferation inhibition was calculated using Origin 9.2 software, and the inhibition rate at the highest concentration of the compound (Max inhi. %) was calculated according to formula (1). Max inhi. %=(1-T72 administration/T72 vehicle)×100 Formula (1).

SMILES strings stand for the structures. Where a name gives a salt, the structure may show the parent alone.

On to `Nc1ncnc2c1c(-c1ccc(Oc3ccccc3)cc1)nn2C1CCN(C2CN(C3CCN(C4CCN(c5ccc6c(c5)C(=O)N(C5CCC(=O)NC5=O)C6=O)CC4)CC3)C2)CC1` (centres unmarked) [Compound 15, 5-[4-[4-[3-[4-[4-amino-3-(4-phenoxyphenyl)pyrazolo[3,4-d]pyrimidin-1-yl]-1-piperidyl]azetidin-1-yl]-1-piperidyl]-1-piperidyl]-2-(2,6-dioxo-3-piperidyl)isoindoline-1,3-dione], for which the “Mino Max inhi. %” value came to 99.8%.

Consider `Nc1ncnc2c1c(-c1ccc(Oc3ccccc3)cc1)nn2C1CCN(C2CCN(C3CN(C4CCN(c5ccc6c(c5)C(=O)N(C5CCC(=O)NC5=O)C6=O)CC4)C3)C2)CC1` (centres unmarked) [Compound 16, 5-[4-[3-[3-[4-[4-amino-3-(4-phenoxyphenyl)pyrazolo[3,4-d]pyrimidin-1-yl]-1-piperidyl]pyrrolidin-1-yl]azetidin-1-yl]-1-piperidyl]-2-(2,6-dioxo-3-piperidyl)isoindoline-1,3-dione], for which the “Mino Max inhi. %” value is 99.7%.

In general, IC50 refers to the midpoint of a concentration-inhibition curve. Turning to `Nc1ncnc2c1c(-c1ccc(Oc3ccccc3)cc1)nn2C1CCN(C2CN(C3CCN(c4ccc5c(c4)C(=O)N(C4CCC(=O)NC4=O)C5=O)CC3)C2)CC1` (centres unmarked) [Compound 23, 5-[4-[3-[4-[4-amino-3-(4-phenoxyphenyl)pyrazolo[3,4-d]pyrimidin-1-yl]-1-piperidyl]azetidin-1-yl]-1-piperidyl]-2-(2,6-dioxo-3-piperidyl)isoindoline-1,3-dione], the half-inhibitory concentration (IC50) was 295 nM.

Compound `Nc1ncnc2c1c(-c1ccc(Oc3ccccc3)cc1)nn2C1CCN(C2CCN(C3CN(c4ccc5c(c4)C(=O)N(C4CCC(=O)NC4=O)C5=O)C3)C2)CC1` (centres unmarked) [Compound 24, 5-[3-[3-[4-[4-amino-3-(4-phenoxyphenyl)pyrazolo[3,4-d]pyrimidin-1-yl]-1-piperidyl]pyrrolidin-1-yl]azetidin-1-yl]-2-(2,6-dioxo-3-piperidyl)isoindoline-1,3-dione] had a 50% inhibitory concentration (IC50) of 629 nM.

With `Nc1ncnc2c1c(-c1ccc(Oc3ccccc3)cc1)nn2C1CCN(C2CCN(C3CN(c4ccc5c(c4)CN(C4CCC(=O)NC4=O)C5=O)C3)CC2)CC1` (centres unmarked) [Compound 25, 3-[5-[3-[4-[4-[4-amino-3-(4-phenoxyphenyl)pyrazolo[3,4-d]pyrimidin-1-yl]-1-piperidyl]-1-piperidyl]azetidin-1-yl]-1-oxo-isoindolin-2-yl]piperidine-2,6-dione], half-maximal inhibition (IC50) was put at 282 nM.

As to `Nc1ncnc2c1c(-c1ccc(Oc3ccccc3)cc1)nn2C1CCN(C2CN(C3CN(c4ccc5c(c4)CN(C4CCC(=O)NC4=O)C5=O)C3)C2)CC1` (centres unmarked) [Compound 26, 3-[5-[3-[3-[4-[4-amino-3-(4-phenoxyphenyl)pyrazolo[3,4-d]pyrimidin-1-yl]-1-piperidyl]azetidin-1-yl]azetidin-1-yl]-1-oxo-isoindolin-2-yl]piperidine-2,6-dione], the “Mino Max inhi. %” value stood at 74.3%.

`Nc1ncnc2c1c(-c1ccc(Oc3ccccc3)cc1)nn2C1CCN(C2CN(C3CN(c4cccc5c4C(=O)N(C4CCC(=O)NC4=O)C5=O)C3)C2)CC1` (centres unmarked) [Compound 27, 4-[3-[3-[4-[4-amino-3-(4-phenoxyphenyl)pyrazolo[3,4-d]pyrimidin-1-yl]-1-piperidyl]azetidin-1-yl]azetidin-1-yl]-2-(2,6-dioxo-3-piperidyl)isoindoline-1,3-dione] returned a concentration for half-maximal inhibition (IC50) of 503 nM.

Take `Nc1ncnc2c1c(-c1ccc(Oc3ccccc3)cc1)nn2C1CCN(C2CN(C3CN(c4ccc5c(c4)C(=O)N(C4CCC(=O)NC4=O)C5=O)C3)C2)C1` (centres unmarked) [Compound 29, 5-(3-(3-(4-amino-3-(4-phenoxyphenyl)-1H-pyrazolo[3,4-d]pyrimidin-1-yl)pyrrolidin-1-yl)-[1,3′-biazetidin]-1′-yl)-2-(2,6-dioxopiperidin-3-yl)isoindoline-1,3-dione trifluoroacetate]: the “Mino Max inhi. %” value amounted to 71.2%.
